From US20230131899A1, “INHIBITORS OF MICROBIALLY INDUCED AMYLOID” (Axial Therapeutics, Inc., priority 2020, published 2023)
Read-outs that look alike come from different tables or passages of the source.

How the values were obtained:
human α-synuclein = target: T1, human α-synuclein (Homo sapiens, UniProt P37840); assay: Cell-free Thioflavin T assay of α-synuclein aggregation (αSyn ThT Assay); type: biochemical; conditions: αSyn 50 μM
T1 construct: the full-length gene for untagged human α-synuclein was inserted; made in house; host or cells: E. coli BL21(DE3), plasmid derived from pT7 or pET11a
Experimental: To assess the effects of compounds on aggregation of α-synuclein, a cell-free assay was performed using purified α-synuclein and Thioflavin T. In the assay, human α-synuclein was expressed in E. coli BL21(DE3) from a plasmid derived from pT7 or pET11a into which the full-length gene for untagged human α-synuclein was inserted. Cells were induced at OD600 0.6 with 0.8 mM IPTG for 4 hours, harvested by centrifugation and suspended in a volume of lysis buffer (10 mM Tris, pH 8.0, 1 mM EDTA, and 1 mM PMSF) equivalent to one-tenth the volume of culture and lysed by boiling for 20 minutes. Cell debris was pelleted by centrifugation, clarified lysate was treated with 10% streptomycin sulfate at 136 μL/mL followed by glacial acetic acid at 228 μL/mL, lysate was centrifuged, supernatant was transferred to a fresh tube and protein was precipitated via addition of an equal volume of saturated (100%) ammonium sulfate and incubated at 4° C. on a rocking shaker for 1 hour. The protein was pelleted via centrifugation and washed with an equal volume of 100 mM ammonium acetate in chilled ethanol, pelleted via centrifugation, washed twice with chilled ethanol, dried overnight, resuspended in 50 mM potassium phosphate buffer pH 7.3 or 10 mM Tris pH 7.4, and passed through a 50 kDa cut-off column. Immediately prior to use, the purified α-synuclein was filtered with a 0.2 μm nylon filter. The assay was conducted in 96-well black microplates with a single 1-2 mm glass bead in each well, 20-40 μM ThioflavinT, 1% DMSO, α-synuclein at 50 μM and compounds at 20-100 μM. Plates were sealed with sealing tape (ThermoFisher 232701), incubated at 37° C. in a Tecan Nano F200 plate reader with excitation at 438 nm using a 439 nm filter with a bandwidth of 8 nm, and emission at 495 nm with a 490 nm filter with a bandwidth of 10 nm. During the assay, plates were shaken continuously or were shaken for 999 seconds every 18 minutes. Readings were performed hourly for up to 73 hours. The effect of compounds on α-synuclein aggregation in the assay was determined with data at 36, 47, 48 or 72 hours or from the final timepoint of the assay, prior to or roughly near the time when ThT fluorescence plateaued in the vehicle control wells. The vehicle controls contained all components of the assay except compounds and represented the level of α-synuclein aggregation in the absence of an inhibitor or accelerator. Fluorescence values for each compound with α-synuclein were first adjusted by subtracting the average fluorescence of the compound in the absence of α-synuclein. These adjusted values were normalized by dividing them by the average fluorescence at the same timepoint in the vehicle control wells, and the average normalized fluorescence with the compound was expressed as a percentage of the average fluorescence observed in untreated controls. Percent inhibition of α-synuclein aggregation by a compound was determined by subtracting the percent average fluorescence with the compound relative to the average vehicle control from 100%. A higher positive percent inhibition reflects greater inhibition of α-synuclein aggregation, while a negative percent inhibition reflects potentiation of α-synuclein aggregation.
Alternate concentrations of Thioflavin T may be used in the assay and may affect the fluorescent signal and sensitivity of the assay. Alternate concentrations of α-synuclein may be used and such alterations may affect aggregation kinetics of α-synuclein in the assay. Alternate concentrations of compounds may be tested in the assay, and dose-responses may be evaluated. Additional reagents may be added to the assay which may affect aggregation kinetics of α-synuclein depending on their concentration, including detergents such as sodium dodecyl sulfate, sodium chloride, dithiotreitol, or bovine serum albumin. Shaking may be included at alternate intervals in the assay and may affect α-synuclein aggregation kinetics. […]

E. coli CsgA = target: T2, E. coli CsgA (Escherichia coli, UniProt P28307); assay: In vitro ThioflavinT assay of CsgA aggregation (CsgA ThT Assay); type: biochemical; conditions: for remaining activity at 25 µM: compound 25 μM; for remaining activity at 100 µM: compound 100 μM
T2 construct: made in house; host or cells: E. coli NEB 3016 slyD::kan, pET11d
Procedure, shortened: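 Purified C-terminal His-tagged CsgA, monomerised by desalting and 30-kDa filtration, at 2-20 μM with 20-40 μM ThT in 50 mM potassium phosphate pH 7.3, 1% DMSO, compounds 3.125-200 uM; room temperature, fluorescence (ex 438/em 495 nm) read every 15 min. Background-subtracted signal expressed as percent inhibition versus vehicle at 6-6.5 or 8-9 h, or as percent control AUC.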

[1] = tested on: CsgA gene expression (csgBAC promoter-GFP reporter) in E. coli UTI89; assay: In vitro live cell fluorescent reporter assay of CsgA transcription (Reporter Assay); type: cell-based; conditions: Escherichia coli
Procedure, shortened: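 Compounds at 0.14–100 μM (1% DMSO final) incubated 20 h at 27 °C in YESCA broth with UTI89 carrying a single-copy GFP reporter under the csgBAC intergenic promoter region, inoculum OD600 0.003. Fluorescence normalized to vehicle wells gave IC50 and 50%-of-vehicle concentration; OD600 reduction >10% flagged growth impact.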

[2] = mean % inhibition of αSyn aggregation relative to DMSO control, compounds at 100 μM, read-out: αSyn ThT Assay % Inhibition
[3] = compounds at 100 μM, class symbol, read-out: αSyn ThT Assay % Inhibition (activity range)
[4] = read-out: CsgA ThT Assay (10 μM CsgA) % Control AUC at 1005 minutes, 25 μM (activity range), CsgA 10 μM, black plates, 1005 minutes, class symbol
[5] = read-out: CsgA ThT Assay (10 μM CsgA) % Control AUC at 1005 minutes, 25 μM, mean AUC as % of DMSO control, CsgA 10 μM, black plates, 1005 minutes
[6] = read-out: CsgA ThT Assay (10 μM CsgA) % Control AUC at 1005 minutes, 100 μM (activity range), CsgA 10 μM, black plates, 1005 minutes, class symbol
[7] = read-out: CsgA ThT Assay (10 μM CsgA) % Control AUC at 1005 minutes, 100 μM, mean AUC as % of DMSO control, CsgA 10 μM, black plates, 1005 minutes
[8] = read-out: Reporter Assay Abs IC50 (activity range), median Abs IC50 in the CsgA reporter assay, class symbol
[9] = read-out: Reporter Assay Abs IC50 (μM), median Abs IC50 in the CsgA reporter assay, N/A = maximum expression reduction is <50% of control

T2 sequence (P28307 23-151): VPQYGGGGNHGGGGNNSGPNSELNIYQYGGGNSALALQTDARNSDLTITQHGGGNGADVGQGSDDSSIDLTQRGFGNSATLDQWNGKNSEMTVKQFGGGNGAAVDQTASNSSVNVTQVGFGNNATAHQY

| Compound | inhibition at 100 µM (human α-synuclein; [2]) [%] | inhibition at 100 µM (human α-synuclein; [3]) [%] | remaining activity at 25 µM (E. coli CsgA; [4]) [%] | remaining activity at 25 µM (E. coli CsgA; [5]) [%] | remaining activity at 100 µM (E. coli CsgA; [6]) [%] | remaining activity at 100 µM (E. coli CsgA; [7]) [%] | IC50 [1, 8] [µM] | IC50 [1, 9] [µM] | also measured |
| --- | --- | --- | --- | --- | --- | --- | --- | --- | --- |
| O=C(O)C1CNS(=O)(=O)c2c(-c3cccc(C(F)(F)F)c3)c(Cc3cccc4ccccc34)cc(=O)n21 (racemic) [Compound 009, 8-(naphthalen-1-ylmethyl)-6-oxo-9-(3-(trifluoromethyl)phenyl)-3,4-dihydro-2H,6H-pyrido[1,2-e][1,2,5]thiadiazine-4-carboxylic acid 1,1-dioxide] | 28 | 11 to 30 | – | – | – | – | – | – | – |
| CN1CC(C(=O)O)n2c(c(-c3cccc(C(F)(F)F)c3)c(Cc3ccc(NS(C)(=O)=O)c4ccccc34)cc2=O)S1(=O)=O (centres unmarked) [Compound 067] | 35 | 31 to 60 | > 60 | 67 | 11 to 31 | 16 | – | – | – |
| CC(C)CNC(=O)c1c(Cc2cccc3ccccc23)c(-c2cccc(C(F)(F)F)c2)c2n(c1=O)C(C(=O)O)CN(C)S2(=O)=O (centres unmarked) [Compound 159, 7-(isobutylcarbamoyl)-2-methyl-8-(naphthalen-1-ylmethyl)-6-oxo-9-(3-(trifluoromethyl)phenyl)-3,4-dihydro-2H,6H-pyrido[1,2-e][1,2,5]thiadiazine-4-carboxylic acid 1,1-dioxide] | – | – | – | – | – | – | – | – | inhibition at 100 µM (human α-synuclein; class symbol, compounds 100 μM, read-out: αSyn ThT Assay % inhibition, activity range): > 60%; inhibition at 100 µM (human α-synuclein; mean percent inhibition relative to DMSO control, compounds 100 μM, read-out: αSyn ThT Assay % inhibition): 83%; remaining activity at 25 µM (E. coli CsgA; read-out: CsgA ThT Assay (2 μM CsgA) % Control Bmax 25 μM, activity range, class symbol, CsgA 2 μM, white plates): > 60%; remaining activity at 25 µM (E. coli CsgA; read-out: CsgA ThT Assay (2 μM CsgA) % Control Bmax 25 μM, mean Bmax as percentage of DMSO control, CsgA 2 μM, white plates): 64%; remaining activity at 100 µM (E. coli CsgA; read-out: CsgA ThT Assay (2 μM CsgA) % Control Bmax 100 μM, activity range, class symbol, CsgA 2 μM, white plates): > 60%; remaining activity at 100 µM (E. coli CsgA; read-out: CsgA ThT Assay (2 μM CsgA) % Control Bmax 100 μM, mean Bmax as percentage of DMSO control, CsgA 2 μM, white plates): 76% |
| O=C(O)CCCN1CC(C(=O)O)n2c(c(-c3cccc(C(F)(F)F)c3)c(Cc3cccc4ccccc34)cc2=O)S1(=O)=O (centres unmarked) [Compound 029, 2-(3-carboxypropyl)-8-(naphthalen-1-ylmethyl)-6-oxo-9-(3-(trifluoromethyl)phenyl)-3,4-dihydro-2H,6H-pyrido[1,2-e][1,2,5]thiadiazine-4-carboxylic acid 1,1-dioxide] | -2 | -10 to 10 | > 60 | 71 | 31 to 60 | 48 | – | – | – |
| CN1CC(C(=O)O)n2c(c(-c3cccc(C(F)(F)F)c3)c(Cc3cccc4ccccc34)cc2=O)S1(=O)=O (single isomer, unassigned) [Compound 008b, 2-methyl-8-(naphthalen-1-ylmethyl)-6-oxo-9-(3-(trifluoromethyl)phenyl)-3,4-dihydro-2H,6H-pyrido[1,2-e][1,2,5]thiadiazine-4-carboxylic acid 1,1-dioxide] | – | – | – | – | – | – | – | – | αSyn ThT Assay % Inhibition (human α-synuclein; mean % inhibition of αSyn aggregation relative to DMSO control, compounds at 100 μM): 10%; αSyn ThT Assay % Inhibition (activity range) (human α-synuclein; compounds at 100 μM, class symbol): (−) ((−) represents −10 to 10) |
| O=C(O)C1CS(=O)(=O)c2c(-c3cccc(C(F)(F)F)c3)c(Cc3cccc4ccccc34)cc(=S)n21 (racemic) [Compound 014, 7-(naphthalen-1-ylmethyl)-5-thioxo-8-(3-(trifluoromethyl)phenyl)-2,3-dihydro-5H-thiazolo[3,2-a]pyridine-3-carboxylic acid 1,1-dioxide] | 35 | 31 to 60 | – | – | – | – | – | – | – |
| O=C(O)C1CS(=O)(=O)c2c(-c3cccc(C(F)(F)F)c3)c(Cc3cccc4ccccc34)cc(=O)n21 (racemic) [Compound 010, 7-(naphthalen-1-ylmethyl)-5-oxo-8-(3-(trifluoromethyl)phenyl)-2,3-dihydro-5H-thiazolo[3,2-a]pyridine-3-carboxylic acid 1,1-dioxide] | 13 | 11 to 30 | – | – | – | – | – | – | – |
| O=C(O)C1CN(CCO)S(=O)(=O)c2c(-c3cccc(C(F)(F)F)c3)c(Cc3cccc4ccccc34)cc(=O)n21 (centres unmarked) [Compound 084, 2-(2-hydroxyethyl)-8-(naphthalen-1-ylmethyl)-6-oxo-9-(3-(trifluoromethyl)phenyl)-3,4-dihydro-2H,6H-pyrido[1,2-e][1,2,5]thiadiazine-4-carboxylic acid 1,1-dioxide] | – | – | 31 to 60 | 57 | 11 to 31 | 19 | > 10 | 27 | – |
| CCc1c(Cc2cccc3ccccc23)c(-c2cccc(C(F)(F)F)c2)c2n(c1=O)C(C(=O)O)CN(CCCCCO)S2(=O)=O (centres unmarked) [Compound 114, 7-ethyl-2-(5-hydroxypentyl)-8-(naphthalen-1-ylmethyl)-6-oxo-9-(3-(trifluoromethyl)phenyl)-3,4-dihydro-2H,6H-pyrido[1,2-e][1,2,5]thiadiazine-4-carboxylic acid 1,1-dioxide] | – | – | 31 to 60 | 37 | 11 to 31 | 21 | 4.6 to 10 | 7 | – |
| CCCc1sc2c(-c3cccc(C(F)(F)F)c3)c(Cc3cccc4ccccc34)cc(=O)n2c1C(=O)O [Compound 061, 7-(naphthalen-1-ylmethyl)-5-oxo-2-propyl-8-(3-(trifluoromethyl)phenyl)-5H-thiazolo[3,2-a]pyridine-3-carboxylic acid] | – | – | 31 to 60 | 44 | 31 to 60 | 45 | 1.3 to 4.5 | 2.1 | – |
